Assay results published in ChEMBL document CHEMBL1909046, “DrugMatrix in vitro pharmacology data”.

Columns and labels:
[1] = target: Sodium-dependent noradrenaline transporter (Homo sapiens, UniProt P23975); experiment: DRUGMATRIX: Norepinephrine Transporter radioligand binding (ligand: [125I] RTI-55); assay type: cell membranes, MDCK, Membrane; conditions: Not Active = under 50% inhibition at 10 µM; for Ki: read-out: Ki
Vasopressin V1a receptor = Vasopressin V1a receptor (Homo sapiens, UniProt P37288); assay type: cell membranes, Membrane; conditions: hek293; also: in other assays of this panel Not Active means under 50% inhibition at 10 µM
Sequence of Vasopressin V1a receptor (P37288 whole entry): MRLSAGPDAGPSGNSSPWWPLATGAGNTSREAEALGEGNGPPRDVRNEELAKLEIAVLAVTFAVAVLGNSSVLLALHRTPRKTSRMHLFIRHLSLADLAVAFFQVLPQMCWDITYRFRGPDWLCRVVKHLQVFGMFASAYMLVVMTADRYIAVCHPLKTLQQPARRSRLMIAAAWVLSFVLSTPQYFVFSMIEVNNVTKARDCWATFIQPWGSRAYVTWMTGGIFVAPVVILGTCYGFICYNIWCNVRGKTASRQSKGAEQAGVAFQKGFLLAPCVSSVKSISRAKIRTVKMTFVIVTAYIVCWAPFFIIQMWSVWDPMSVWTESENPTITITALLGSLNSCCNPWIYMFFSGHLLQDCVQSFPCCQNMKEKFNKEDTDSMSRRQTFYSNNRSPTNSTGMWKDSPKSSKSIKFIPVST

[2] = target: 5-hydroxytryptamine receptor 6 (Homo sapiens, UniProt P50406); assay type: cell membranes, HeLa, Membrane; conditions: for Ki: read-out: Ki; as to all read-outs here: in other assays of this panel Not Active means under 50% inhibition at 10 µM
Sequence of 5-hydroxytryptamine receptor 6 (P50406 whole entry): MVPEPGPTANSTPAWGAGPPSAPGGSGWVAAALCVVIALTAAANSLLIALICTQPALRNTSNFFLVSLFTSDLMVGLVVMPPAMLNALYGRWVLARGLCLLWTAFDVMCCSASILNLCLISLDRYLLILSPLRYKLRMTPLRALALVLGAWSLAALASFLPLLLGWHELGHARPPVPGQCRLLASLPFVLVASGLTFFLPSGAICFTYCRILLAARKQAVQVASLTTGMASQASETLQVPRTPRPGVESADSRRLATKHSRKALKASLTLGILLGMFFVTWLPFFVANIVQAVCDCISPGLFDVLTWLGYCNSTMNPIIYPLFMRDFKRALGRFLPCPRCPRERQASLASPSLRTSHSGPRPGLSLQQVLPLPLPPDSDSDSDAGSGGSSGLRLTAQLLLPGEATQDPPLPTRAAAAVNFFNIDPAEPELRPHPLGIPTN

[3] = target: Voltage-gated inwardly rectifying potassium channel KCNH2 (Homo sapiens, UniProt Q12809); conditions: hek293; also: in other assays of this panel Not Active means under 50% inhibition at 10 µM
Sequence of Voltage-gated inwardly rectifying potassium channel KCNH2 (Q12809 whole entry): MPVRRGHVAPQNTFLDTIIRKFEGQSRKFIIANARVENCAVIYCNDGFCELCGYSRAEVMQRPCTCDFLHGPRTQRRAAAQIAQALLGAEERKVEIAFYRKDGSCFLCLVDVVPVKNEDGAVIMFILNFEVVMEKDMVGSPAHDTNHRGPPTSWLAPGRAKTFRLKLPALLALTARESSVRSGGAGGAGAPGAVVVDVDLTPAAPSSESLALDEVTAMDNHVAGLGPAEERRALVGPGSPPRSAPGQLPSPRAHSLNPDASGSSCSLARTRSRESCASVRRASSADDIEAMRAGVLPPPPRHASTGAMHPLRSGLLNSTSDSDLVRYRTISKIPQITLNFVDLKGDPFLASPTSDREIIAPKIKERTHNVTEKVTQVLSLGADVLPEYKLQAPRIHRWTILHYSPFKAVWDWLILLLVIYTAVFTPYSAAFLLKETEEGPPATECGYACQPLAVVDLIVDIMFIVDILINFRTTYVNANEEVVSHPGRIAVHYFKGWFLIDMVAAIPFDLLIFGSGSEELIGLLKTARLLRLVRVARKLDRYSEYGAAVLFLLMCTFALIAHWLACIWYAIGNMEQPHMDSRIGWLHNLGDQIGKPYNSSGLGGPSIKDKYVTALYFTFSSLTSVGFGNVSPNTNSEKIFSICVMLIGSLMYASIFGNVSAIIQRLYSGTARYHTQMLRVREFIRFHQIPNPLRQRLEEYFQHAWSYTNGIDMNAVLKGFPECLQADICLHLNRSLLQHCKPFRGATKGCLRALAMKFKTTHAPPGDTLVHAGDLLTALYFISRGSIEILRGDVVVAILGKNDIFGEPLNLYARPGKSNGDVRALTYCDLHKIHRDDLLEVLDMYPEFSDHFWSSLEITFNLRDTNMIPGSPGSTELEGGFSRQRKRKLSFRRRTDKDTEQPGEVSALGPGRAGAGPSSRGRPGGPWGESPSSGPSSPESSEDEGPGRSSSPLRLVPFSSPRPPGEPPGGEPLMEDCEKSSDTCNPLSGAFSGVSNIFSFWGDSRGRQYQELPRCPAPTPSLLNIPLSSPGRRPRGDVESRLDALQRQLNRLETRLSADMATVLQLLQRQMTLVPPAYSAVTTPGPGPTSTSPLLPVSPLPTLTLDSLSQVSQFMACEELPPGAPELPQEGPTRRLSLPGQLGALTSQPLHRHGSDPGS

[4] = target: T1, 5-hydroxytryptamine receptor 1A (Rattus norvegicus, UniProt P19327); assay type: cell membranes, CHO-K1, Membrane; conditions: for Ki: read-out: Ki; as to all read-outs here: in other assays of this panel Not Active means under 50% inhibition at 10 µM
T1 sequence (P19327 whole entry): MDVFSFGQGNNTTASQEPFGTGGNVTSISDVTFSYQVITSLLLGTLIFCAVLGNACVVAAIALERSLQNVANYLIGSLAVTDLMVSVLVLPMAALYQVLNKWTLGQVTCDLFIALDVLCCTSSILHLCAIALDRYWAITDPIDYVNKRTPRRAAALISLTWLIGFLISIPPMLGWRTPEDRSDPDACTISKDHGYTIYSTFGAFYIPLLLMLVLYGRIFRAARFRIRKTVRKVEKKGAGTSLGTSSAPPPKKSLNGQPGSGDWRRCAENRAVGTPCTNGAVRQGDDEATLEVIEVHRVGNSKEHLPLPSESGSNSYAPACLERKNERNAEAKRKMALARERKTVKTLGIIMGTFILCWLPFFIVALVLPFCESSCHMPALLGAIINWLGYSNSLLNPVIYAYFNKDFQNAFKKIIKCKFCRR

Sequence of Sodium-dependent noradrenaline transporter (P23975 whole entry): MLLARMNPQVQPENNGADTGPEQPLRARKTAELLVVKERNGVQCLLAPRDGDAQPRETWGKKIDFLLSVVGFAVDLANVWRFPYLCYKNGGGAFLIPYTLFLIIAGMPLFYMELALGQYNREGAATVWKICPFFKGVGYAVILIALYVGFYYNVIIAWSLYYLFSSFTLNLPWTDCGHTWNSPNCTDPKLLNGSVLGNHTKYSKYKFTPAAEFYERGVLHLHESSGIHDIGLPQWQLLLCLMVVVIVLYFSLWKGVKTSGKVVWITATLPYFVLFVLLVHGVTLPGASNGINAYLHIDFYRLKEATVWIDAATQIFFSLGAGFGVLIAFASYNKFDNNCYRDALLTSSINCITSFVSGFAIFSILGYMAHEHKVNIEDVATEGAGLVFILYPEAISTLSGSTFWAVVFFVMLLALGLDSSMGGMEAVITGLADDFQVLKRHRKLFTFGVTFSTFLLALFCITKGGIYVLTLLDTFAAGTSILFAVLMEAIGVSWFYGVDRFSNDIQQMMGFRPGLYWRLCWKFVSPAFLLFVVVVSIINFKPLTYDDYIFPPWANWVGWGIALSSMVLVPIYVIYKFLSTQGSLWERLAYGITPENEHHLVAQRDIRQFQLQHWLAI

| Structure (SMILES) | IC50 ([1]; read-out: IC50) [nM] | Ki [1] [nM] | IC50 (Vasopressin V1a receptor) | IC50 ([2]; hela) | IC50 [3] | Ki [3] | IC50 ([4]; cho-k1) | IC50 ([1]; mdck) | IC50 ([4]; read-out: IC50) [nM] | Ki [4] [nM] | IC50 ([2]; read-out: IC50) [nM] | Ki [2] [nM] |
| --- | --- | --- | --- | --- | --- | --- | --- | --- | --- | --- | --- | --- |
| COc1cc(N)nc2[nH]c(-c3ccc(F)cc3)c(-c3ccncc3)c12 | 1070 | 1060 | Not Active | Not Active | Not Active | Not Active | Not Active |  |  |  |  |  |
| CNS(=O)(=O)Cc1ccc2[nH]cc(CCN(C)C)c2c1 |  |  | Not Active | Not Active | Not Active | Not Active |  | Not Active | 804 | 459 |  |  |
| CCCc1nn(C)c2c(=O)[nH]c(-c3cc(S(=O)(=O)N4CCN(C)CC4)ccc3OCC)nc12 |  |  | Not Active | Not Active |  |  | Not Active | Not Active |  |  |  |  |
| COc1ccc(/C=C/C(=O)Nc2ccccc2C(=O)O)cc1OC |  |  | Not Active | Not Active | Not Active | Not Active | Not Active | Not Active |  |  |  |  |
| CCOC(N)=O |  |  | Not Active | Not Active | Not Active | Not Active | Not Active | Not Active |  |  |  |  |
| CC(=O)Nc1nnc(S(N)(=O)=O)s1 [ACETAZOLAMIDE] |  |  | Not Active | Not Active | Not Active | Not Active | Not Active | Not Active |  |  |  |  |
| O=c1[nH]c2ccccc2n1CCCN1CCC(n2c(=O)[nH]c3cc(Cl)ccc32)CC1 [DOMPERIDONE] |  |  | Not Active | Not Active | Not Active | Not Active | Not Active |  |  |  |  |  |
| CC1=C(CC(=O)O)c2cc(F)ccc2/C1=C\c1ccc(S(C)(=O)=O)cc1 [EXISULIND] |  |  | Not Active | Not Active | Not Active | Not Active | Not Active | Not Active |  |  |  |  |
| CC(C)OC(=O)C(C)(C)Oc1ccc(C(=O)c2ccc(Cl)cc2)cc1 [FENOFIBRATE] |  |  | Not Active | Not Active | Not Active | Not Active | Not Active |  |  |  |  |  |
| OCCN1CCN(CCCN2c3ccccc3Sc3ccc(C(F)(F)F)cc32)CC1 [FLUPHENAZINE] | 1960 | 1950 | Not Active |  |  |  |  |  | 1640 | 939 | 52 | 24 |
| CN1C2CCCC1CC(NC(=O)c1nn(C)c3ccccc13)C2 (stereo not given) [GRANISETRON] |  |  | Not Active | Not Active | Not Active | Not Active | Not Active | Not Active |  |  |  |  |
| Nc1nc2c(c(=O)[nH]1)N(C=O)C(CNc1ccc(C(=O)N[C@@H](CCC(=O)O)C(=O)O)cc1)CN2 (stereo not given in full) [LEUCOVORIN] |  |  | Not Active | Not Active | Not Active | Not Active | Not Active | Not Active |  |  |  |  |
| C[C@@H](O)[C@H]1C(=O)N2C(C(=O)O)=C(S[C@@H]3CN[C@H](C(=O)N(C)C)C3)[C@H](C)[C@H]12 [MEROPENEM] |  |  | Not Active | Not Active | Not Active | Not Active | Not Active | Not Active |  |  |  |  |
| CC[C@@H](CO)NC(=O)[C@@H]1C=C2c3cccc4c3c(cn4C)C[C@H]2N(C)C1 [METHYSERGIDE] |  |  | Not Active |  | Not Active | Not Active |  | Not Active | 54 | 31 | 162 | 75 |
| CCN(CC)CC#CCOC(=O)C(O)(c1ccccc1)C1CCCCC1 (stereo not given) [OXYBUTYNIN] |  |  | Not Active | Not Active | Not Active | Not Active | Not Active |  |  |  |  |  |
| O=P(O)(O)C(O)(Cc1cccnc1)P(=O)(O)O [RISEDRONIC ACID] |  |  | Not Active | Not Active | Not Active | Not Active | Not Active | Not Active |  |  |  |  |
| C[C@]12CC[C@H]3[C@@H](CCC4=CC(=O)CC[C@@]43C)[C@@H]1CC[C@@H]2O [TESTOSTERONE] |  |  | Not Active | Not Active |  |  | Not Active | Not Active |  |  |  |  |
| O=c1n(CCCN2CCN(c3cccc(Cl)c3)CC2)nc2ccccn12 [TRAZODONE] |  |  | Not Active | Not Active | Not Active | Not Active |  | Not Active |  |  |  |  |
